Measurements published in ChEMBL document CHEMBL1127911, “Synthesis of sulphur heterocycles as hepatoprotectants : part I” (1994).

Columns and labels:
Assay type in all cases: functional
Rattus norvegicus [1] = assay: Tested for hepatoprotective activity against thioacetamide-induced hepatic damage in rat at 6 mg/kg, expressed as % protection afforded in ALP levels
Rattus norvegicus [2] = assay: % protection of glutamate pyruvate transaminase level, against thioacetamide-induced hepatic damage in rats, at 6 mg/Kg peroral dose
Rattus norvegicus [3] = assay: Tested for hepatoprotective activity against thioacetamide-induced hepatic damage in rat at 6 mg/kg, expressed as % protection afforded in ACP levels
Rattus norvegicus [4] = assay: % protection measured by glutamate oxaloacetate transaminase level, against thioacetamide-induced hepatic damage in rats, at 6 mg/Kg peroral dose
Rattus norvegicus [5] = assay: Tested for hepatoprotective activity against thioacetamide-induced hepatic damage in rat at 6 mg/kg, expressed as % protection afforded in GIDH levels

Molecule: N#Cc1c(-c2ccccc2)cc(S)sc1=N
- Protection (Rattus norvegicus [1]): 30%
- Protection (Rattus norvegicus [2]): 35%
- Protection (Rattus norvegicus [3]): 47%
- Protection (Rattus norvegicus [4]): 41%
- Protection (Rattus norvegicus [5]): 47%

Molecule: O=C(c1ccc(Cl)cc1)c1sc(=S)sc1SCc1ccccc1
- Protection (Rattus norvegicus [1]): 3%
- Protection (Rattus norvegicus [2]): 39%
- Protection (Rattus norvegicus [3]): 4%
- Protection (Rattus norvegicus [4]): 80%
- Protection (Rattus norvegicus [5]): 15%

Molecule: CCOC(=O)C(C(=O)c1ccccc1)=C1SCCS1
- Protection (Rattus norvegicus [1]): 0%
- Protection (Rattus norvegicus [2]): 0%
- Protection (Rattus norvegicus [3]): 29%
- Protection (Rattus norvegicus [4]): 0%
- Protection (Rattus norvegicus [5]): 0%

Molecule: CC(=O)C(C(C)=O)=C1SCCCS1
- Protection (Rattus norvegicus [1]): 67%
- Protection (Rattus norvegicus [2]): 0%
- Protection (Rattus norvegicus [3]): 0%
- Protection (Rattus norvegicus [4]): 27%
- Protection (Rattus norvegicus [5]): 0%

Molecule: CCOC(=O)C(C(=O)c1ccccc1)=C1SCCCS1
- Protection (Rattus norvegicus [1]): 0%
- Protection (Rattus norvegicus [2]): 45%
- Protection (Rattus norvegicus [3]): 7%
- Protection (Rattus norvegicus [4]): 35%
- Protection (Rattus norvegicus [5]): 23%

Molecule: CC(=O)C(C(C)=O)=C1SCCS1
- Protection (Rattus norvegicus [1]): 0%
- Protection (Rattus norvegicus [2]): 40%
- Protection (Rattus norvegicus [3]): 0%
- Protection (Rattus norvegicus [4]): 67%
- Protection (Rattus norvegicus [5]): 8%

Molecule: N#CC(C(=O)c1ccccc1)=C1SCCCS1
- Protection (Rattus norvegicus [1]): 0%
- Protection (Rattus norvegicus [2]): 0%
- Protection (Rattus norvegicus [3]): 0%
- Protection (Rattus norvegicus [4]): 0%
- Protection (Rattus norvegicus [5]): 0%

Molecule: CC(C)OC(=O)C(C(=O)OC(C)C)=C1SCCS1 [ISOPROTHIOLANE]
- Protection (Rattus norvegicus [1]): 0%
- Protection (Rattus norvegicus [2]): 77%
- Protection (Rattus norvegicus [3]): 0%
- Protection (Rattus norvegicus [4]): 92%
- Protection (Rattus norvegicus [5]): 0%

Molecule: CCN(CC)C(=S)SC(C(=O)c1ccc(Cl)cc1)=C1SCCCS1
- Protection (Rattus norvegicus [1]): 37%
- Protection (Rattus norvegicus [2]): 0%
- Protection (Rattus norvegicus [3]): 6%
- Protection (Rattus norvegicus [4]): 85%
- Protection (Rattus norvegicus [5]): 26%

Molecule: COC(=O)C(C(C)=O)=C1SCCCS1
- Protection (Rattus norvegicus [1]): 14%
- Protection (Rattus norvegicus [2]): 0%
- Protection (Rattus norvegicus [3]): 0%
- Protection (Rattus norvegicus [4]): 66%
- Protection (Rattus norvegicus [5]): 68%

Molecule: CCN(CC)C(=S)SC(C(=O)c1ccc(Cl)cc1)=C1SCCS1
- Protection (Rattus norvegicus [1]): 0%
- Protection (Rattus norvegicus [2]): 0%
- Protection (Rattus norvegicus [3]): 27%
- Protection (Rattus norvegicus [4]): 46%
- Protection (Rattus norvegicus [5]): 5%

Molecule: SILYMARIN
- Protection (Rattus norvegicus [1]): 47%
- Protection (Rattus norvegicus [2]): 47.2%
- Protection (Rattus norvegicus [3]): 43.6%
- Protection (Rattus norvegicus [4]): 50.1%
- Protection (Rattus norvegicus [5]): 39.8%

Molecule: CCN(CC)C(=S)SC(C(=O)c1ccc(Br)cc1)=C1SCCCS1
- Protection (Rattus norvegicus [1]): 0%
- Protection (Rattus norvegicus [2]): 0%
- Protection (Rattus norvegicus [3]): 20%
- Protection (Rattus norvegicus [4]): 38%
- Protection (Rattus norvegicus [5]): 0%

Molecule: N#CC(C(=O)c1ccc(Cl)cc1)=C1SCCCS1
- Protection (Rattus norvegicus [1]): 0%
- Protection (Rattus norvegicus [2]): 0%
- Protection (Rattus norvegicus [3]): 0%
- Protection (Rattus norvegicus [4]): 63%
- Protection (Rattus norvegicus [5]): 0%

Molecule: CCOC(=O)C(C#N)=C1SCCS1
- Protection (Rattus norvegicus [1]): 11%
- Protection (Rattus norvegicus [2]): 73%
- Protection (Rattus norvegicus [3]): 35%
- Protection (Rattus norvegicus [4]): 74%
- Protection (Rattus norvegicus [5]): 46%

Molecule: N#CC(C(=O)c1ccccc1)=C1SCCS1
- Protection (Rattus norvegicus [1]): 31%
- Protection (Rattus norvegicus [2]): 0%
- Protection (Rattus norvegicus [3]): 0%
- Protection (Rattus norvegicus [4]): 0%
- Protection (Rattus norvegicus [5]): 0%

Molecule: CCOC(=O)C(C#N)=C1SCCCS1
- Protection (Rattus norvegicus [1]): 76%
- Protection (Rattus norvegicus [2]): 59%
- Protection (Rattus norvegicus [3]): 0%
- Protection (Rattus norvegicus [4]): 84%
- Protection (Rattus norvegicus [5]): 0%

Molecule: CCN(CC)C(=S)SC(C(=O)c1ccc(C)cc1)=C1SCCS1
- Protection (Rattus norvegicus [1]): 0%
- Protection (Rattus norvegicus [2]): 0%
- Protection (Rattus norvegicus [3]): 70%
- Protection (Rattus norvegicus [4]): 56%
- Protection (Rattus norvegicus [5]): 93%

Molecule: CCOC(=O)C(C(=O)OCC)=C1SCCS1
- Protection (Rattus norvegicus [1]): 0%
- Protection (Rattus norvegicus [2]): 0%
- Protection (Rattus norvegicus [3]): 39%
- Protection (Rattus norvegicus [4]): 0%
- Protection (Rattus norvegicus [5]): 2%

Molecule: O=C(C(C(=O)c1ccccc1)=C1SCCS1)c1ccccc1
- Protection (Rattus norvegicus [1]): 34%
- Protection (Rattus norvegicus [2]): 0%
- Protection (Rattus norvegicus [3]): 8%
- Protection (Rattus norvegicus [4]): 0%
- Protection (Rattus norvegicus [5]): 0%

Molecule: N#Cc1c(SCCS)n[nH]c1N
- Protection (Rattus norvegicus [1]): 0%
- Protection (Rattus norvegicus [2]): 0%
- Protection (Rattus norvegicus [3]): 9%
- Protection (Rattus norvegicus [4]): 0%
- Protection (Rattus norvegicus [5]): 0%

Molecule: N#CC(C(=O)c1ccc(Cl)cc1)=C1SCCS1
- Protection (Rattus norvegicus [1]): 0%
- Protection (Rattus norvegicus [2]): 0%
- Protection (Rattus norvegicus [3]): 0%
- Protection (Rattus norvegicus [4]): 0%
- Protection (Rattus norvegicus [5]): 0%

Molecule: COC(=O)C(C(C)=O)=C1SCCS1
- Protection (Rattus norvegicus [1]): 0%
- Protection (Rattus norvegicus [2]): 0%
- Protection (Rattus norvegicus [3]): 9%
- Protection (Rattus norvegicus [4]): 7%
- Protection (Rattus norvegicus [5]): 0%
